{
  "source": "ChEMBL document CHEMBL5143596",
  "about": "“The Design and Optimization of Monomeric Multitarget Peptides for the Treatment of Multifactorial Diseases” (J Med Chem, 2022)",
  "key": {"Mu-type opioid receptor": {"target": "Mu-type opioid receptor (Homo sapiens, UniProt P35372)", "sequence (P35372 whole entry)": "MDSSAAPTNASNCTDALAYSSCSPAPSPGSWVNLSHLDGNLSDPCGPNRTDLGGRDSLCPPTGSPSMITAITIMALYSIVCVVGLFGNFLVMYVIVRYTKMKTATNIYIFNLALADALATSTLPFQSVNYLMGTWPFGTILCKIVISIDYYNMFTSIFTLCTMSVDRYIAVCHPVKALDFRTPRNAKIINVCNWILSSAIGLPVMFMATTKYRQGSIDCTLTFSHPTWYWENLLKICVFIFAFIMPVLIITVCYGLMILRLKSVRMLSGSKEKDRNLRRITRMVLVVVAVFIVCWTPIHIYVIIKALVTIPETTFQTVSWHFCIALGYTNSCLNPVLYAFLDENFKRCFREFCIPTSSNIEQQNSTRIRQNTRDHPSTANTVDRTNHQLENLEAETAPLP", "assay": "Binding affinity at MOR (unknown origin) assessed as inhibition constant"}, "[1]": {"assay": "Metabolic stability in rat plasma assessed as half life", "format": "ADME, cell-free"}},
  "data": [
    {"smiles": "Cc1cc(O)cc(C)c1C[C@H](N)C(=O)N[C@H](C)C(=O)NCC(=O)N(C)[C@@H](Cc1ccccc1)C(=O)N1CCC[C@H]1C(=O)N[C@@H](CC(C)C)C(=O)N[C@@H](Cc1c[nH]c2ccccc12)C(=O)NCc1cc(C(F)(F)F)cc(C(F)(F)F)c1", "values": [
      {"measurement": "Ki", "setting": "Mu-type opioid receptor", "value": 1, "unit": "nM"},
      {"measurement": "half-life", "setting": "[1]", "value": "> 24", "unit": "h"}
    ]}
  ]
}
